Assay results from publication PMC12608647, “Synthesis and Activity Evaluation of Novel Benzoxazepinone Derivatives as Potential Inhibitors of Glycogen Phosphorylase” (Molecules, 2025).
“Also recorded” adds a separate entry of the source.

How the values were obtained:
HL-7702 cells = experiment: Glycogenolysis inhibition assay in HL-7702 cells; assay type: cell-based, human; conditions: for IC50: Homo sapiens, L02, 1 h, HL-7702 cells, 0.3 nM glucagon, 60 min, mean ± SD of three determinations
Procedure: To evaluate the effects of the synthesized compounds on glycogen degradation, compounds 8a–8i were subjected to a glycogenolysis assay in HL-7702 cells.
The inhibitory effect on hepatic glycogenolysis was quantitatively assessed by colorimetry using a microplate reader (Bio-Rad Laboratories) and anthrone reagent (Sigma-Aldrich, St. Louis, MO, USA), as previously described. Primary human liver HL-7702 cells (National Collection of Authenticated Cell Cultures) were treated with test compounds or DMSO solvent (final concentration, 0.10%) and then co-incubated with 0.3 nM glucagon for 60 min. After termination of the reaction by centrifugation, the cells were digested with 30% potassium hydroxide, and the glycogen content was determined. When culturing cells to concentration, a 6-well plate is used for cell culture, with a cell seeding density of 10^6 cells per well. The condition is set at a constant temperature of 37 degrees Celsius. The repetition count is three times. The activity assessment criteria were based on the positive drug psn-357 and the parent nuclear compound 5d. IC50 values were estimated by fitting the inhibition data to a logistic regression equation to generate dose–response curves. Analysis was conducted using SPSS Statistics 17.0. In vitro data are presented as mean ± SD, and in vivo data as mean ± SEM. Differences between two groups were assessed using Student’s t-test, and comparisons among three or more groups using ANOVA. A p-value < 0.05 was considered significant.

[1] = molecular target: T1, rabbit muscle glycogen phosphorylase a (RMGPa) (Oryctolagus cuniculus, UniProt P00489); experiment: RMGPa inhibition assay (phosphate release from glucose-1-phosphate); assay type: biochemical; conditions: for IC50: mean ± SD of three determinations
T1 sequence (P00489 2-843 limits assumed): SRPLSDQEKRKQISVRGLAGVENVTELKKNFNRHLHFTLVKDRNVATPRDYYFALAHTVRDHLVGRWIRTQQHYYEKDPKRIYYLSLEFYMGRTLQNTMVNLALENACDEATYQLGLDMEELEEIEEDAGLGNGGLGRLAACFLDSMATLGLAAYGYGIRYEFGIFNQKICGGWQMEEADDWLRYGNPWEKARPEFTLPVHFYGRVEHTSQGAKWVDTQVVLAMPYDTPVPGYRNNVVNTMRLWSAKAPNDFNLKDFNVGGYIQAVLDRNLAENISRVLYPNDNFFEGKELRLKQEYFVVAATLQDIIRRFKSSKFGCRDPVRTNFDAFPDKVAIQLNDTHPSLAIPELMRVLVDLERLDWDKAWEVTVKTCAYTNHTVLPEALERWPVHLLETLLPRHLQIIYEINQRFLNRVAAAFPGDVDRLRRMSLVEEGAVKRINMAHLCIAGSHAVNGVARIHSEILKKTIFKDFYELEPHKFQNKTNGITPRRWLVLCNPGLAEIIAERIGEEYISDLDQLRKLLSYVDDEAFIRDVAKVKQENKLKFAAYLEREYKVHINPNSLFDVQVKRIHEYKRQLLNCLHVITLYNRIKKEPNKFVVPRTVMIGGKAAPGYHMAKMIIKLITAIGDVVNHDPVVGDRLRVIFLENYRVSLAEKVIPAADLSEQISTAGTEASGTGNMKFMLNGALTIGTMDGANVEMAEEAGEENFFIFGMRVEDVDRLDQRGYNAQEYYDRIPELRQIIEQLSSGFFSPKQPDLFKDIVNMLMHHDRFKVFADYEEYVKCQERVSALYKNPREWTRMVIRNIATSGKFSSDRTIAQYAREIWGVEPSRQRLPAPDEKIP
Procedure: The synthesized compounds were evaluated for their inhibitory activity against rabbit muscle glycogen phosphorylase a (RMGPa) according to a previously reported protocol. PSN-357, a compound in phase II clinical trials, was used as a positive control. We also used the parent structure 5d as a positive control (Figure 2).
The inhibitory activity of the test compounds against RMGPa was evaluated using a microplate reader (Bio-Rad Laboratories, Berkeley, CA, USA) according to a previously described method. Briefly, RMGPa activity was determined by measuring the release of phosphate from glucose-1-phosphate, which reflects the direction of glycogen synthesis. Each test compound was dissolved in DMSO and diluted to different concentrations for IC50 determination. The enzyme was added to 100 μL reaction mixtures in 96-well Costar microplates (Corning Inc., Corning, NY, USA) containing 50 mM HEPES (pH 7.2), 100 mM potassium chloride (KCl), 2.5 mM magnesium chloride (MgCl2), 0.5 mM glucose-1-phosphate, 1 mg/mL glycogen, and the test compounds. After incubation at 22 °C for 25 min, 150 μL of a solution containing 10 mg/mL ammonium molybdate and 0.38 mg/mL malachite green was added. The absorbance of phosphate was measured at 620 nm. IC50 values were estimated by fitting the inhibition data to a dose–response curve using a logistic regression equation.

SMILES	IC50 (HL-7702 cells) [µM]	IC50 [1] [µM]	potency relative to parent structure 5d in HL-7702 cells (HL-7702 cells; versus 5d)	potency relative to PSN-357 in HL-7702 cells (inhibition of glycogen degradation) (HL-7702 cells; versus PSN-357)	RMGPa inhibitory activity relative to PSN-357 ([1]; versus PSN-357)
CCCCOC1COc2ccc(NC(=O)c3cc4cc(Cl)ccc4[nH]3)cc2C(=O)N1 (centres unmarked) [Compound 8d, N-(3-butoxy-5-oxo-2,3,4,5-tetrahydrobenzo[f][1,4]oxazepin-7-yl)-5-chloro-1H-indole-2-carboxamide]	9.81 ± 1.39	0.71 ± 0.25			
CCCOC1COc2ccc(NC(=O)c3cc4cc(Cl)ccc4[nH]3)cc2C(=O)N1 (centres unmarked) [Compound 8c, 5-chloro-N-(5-oxo-3-propoxy-2,3,4,5-tetrahydrobenzo[f][1,4]oxazepin-7-yl)-1H-indole-2-carboxamide]	5.33 ± 1.39				
O=C(N[C@@H](Cc1ccc(F)cc1)C(=O)N1CCC(O)CC1)c1cc2cc(Cl)ncc2[nH]1 [PSN-357, reference compound]	4.94 ± 0.28				
O=C(Nc1ccc2c(c1)C(=O)NC(OCc1ccccc1)CO2)c1cc2cc(Cl)ccc2[nH]1 (centres unmarked) [Compound 8g, N-(3-(benzyloxy)-5-oxo-2,3,4,5-tetrahydrobenzo[f][1,4]oxazepin-7-yl)-5-chloro-1H-indole-2-carboxamide]	1.51 ± 0.21	0.62 ± 0.16	twice	threefold increase; also recorded: three times greater	
CC(C)CCOC1COc2ccc(NC(=O)c3cc4cc(Cl)ccc4[nH]3)cc2C(=O)N1 (centres unmarked) [Compound 8h, 5-chloro-N-(3-(isopentyloxy)-5-oxo-2,3,4,5-tetrahydrobenzo[f][1,4]oxazepin-7-yl)-1H-indole-2-carboxamide]	6.99 ± 0.99	0.7 ± 0.55			
CCOC1COc2ccc(NC(=O)c3cc4cc(Cl)ccc4[nH]3)cc2C(=O)N1 (centres unmarked) [Compound 8b, 5-chloro-N-(3-ethoxy-5-oxo-2,3,4,5-tetrahydrobenzo[f][1,4]oxazepin-7-yl)-1H-indole-2-carboxamide]	6.77 ± 0.93	1.61 ± 0.41			
CCCCCCOC1COc2ccc(NC(=O)c3cc4cc(Cl)ccc4[nH]3)cc2C(=O)N1 (centres unmarked) [Compound 8f, 5-chloro-N-(3-(hexyloxy)-5-oxo-2,3,4,5-tetrahydrobenzo[f][1,4]oxazepin-7-yl)-1H-indole-2-carboxamide]	7.67 ± 1.98	0.29 ± 0.1			
COC1COc2ccc(NC(=O)c3cc4cc(Cl)ccc4[nH]3)cc2C(=O)N1 (centres unmarked) [Compound 8a, 5-chloro-N-(3-methoxy-5-oxo-2,3,4,5-tetrahydrobenzo[f][1,4]oxazepin-7-yl)-1H-indole-2-carboxamide]	8.51 ± 3.99	0.21 ± 0.05			twice as strong
CCCCCOC1COc2ccc(NC(=O)c3cc4cc(Cl)ccc4[nH]3)cc2C(=O)N1 (centres unmarked) [Compound 8e, 5-chloro-N-(5-oxo-3-(pentyloxy)-2,3,4,5-tetrahydrobenzo[f][1,4]oxazepin-7-yl)-1H-indole-2-carboxamide]	15.4 ± 0.89	0.88 ± 0.03			
O=C(Nc1ccc2c(c1)C(=O)NCCO2)c1cc2cc(Cl)ccc2[nH]1 [Compound 5d, reference compound]	3.75 ± 2.67	0.25 ± 0.05			
COCCOC1COc2ccc(NC(=O)c3cc4cc(Cl)ccc4[nH]3)cc2C(=O)N1 (centres unmarked) [Compound 8i, 5-chloro-N-[3-(2-methoxyethoxy)-5-oxo-2,3,4,5-tetrahydrobenzo[f][1,4]oxazepin-7-yl]-1H-indole-2-carboxamide]	> 15.4	5.31 ± 0.62			
